Data from PMC12316928, “Synthesis and evaluation of novel thiohydantoin derivatives for antidiabetic activity using in silico in vitro and in vivo methods” (Scientific Reports, 2025).
In brackets after ≈: the same amount, converted by molar mass. Several values for one entry are separate records, joined by “and”; a condition that tells them apart may be missing. Equal values may be shown once. Entries after “also recorded” stand apart in the source; their conditions may differ.

Columns and labels:
[1] = DPPH free radical scavenging assay
Procedure: The antioxidant activity of synthesized compounds was evaluated using the DPPH free-radical scavenging assay, following the methodology outlined by[34]. This assay is based on the principle that the stable free radical DPPH undergoes a color change from deep purple to yellow upon reduction, indicating hydrogen donation from antioxidant compounds. Different concentrations (3.12, 6.25, 12.5, 25, 50, 100, and 200 µg/mL) of test compounds were prepared in methanol. A 200 µL aliquot of each concentration was mixed with 50 µL of freshly prepared DPPH solution (0.659 mM). The reaction mixtures were incubated at room temperature for 20 min in the dark. Absorbance was recorded at 510 nm using an ELISA microplate reader. Trolox was employed as the reference antioxidant, and the percentage of inhibition was calculated using the following equation:
% Inhibition = [(A0 − A1)/A0] × 100.
Where A0 is the absorbance of the control, and A1 is the absorbance of the sample[34].

[2] = tested on: 3T3 fibroblast cell line; test: Cytotoxicity MTT assay; format: cell-based
Procedure: (§1) The cytotoxic effects of the selected compounds were evaluated against the 3T3 fibroblast cell line (Sigma-Aldrich, product no. 90020107) using the MTT (3-(4,5-dimethylthiazol-2-yl)−2,5-diphenyl tetrazolium bromide) assay, following the protocol established by Mosmann[38]. A cell suspension containing 1 × 10⁵ cells per well was seeded into a 96-well plate and incubated at 37 °C with 5% CO₂ for 48 h. The cells were then treated with different concentrations of test compounds (4, 16, 63, 250, and 1000 µg/mL, dissolved in DMSO) and incubated for an additional 48 h. Following incubation, 180 µL of MTT solution (5 mg/mL in PBS) was added to each well and incubated for 4 h. The formazan crystals formed were solubilized, and absorbance was measured at 570 nm using an ELISA reader. Celecoxib was used as a positive control.

[3] = Cytotoxicity MTT assay; format: cell-based; settings: mouse, 3T3 fibroblast cells, 48 h, Mean ± SD, n = 3, read-out: IC₅₀ cytotoxicity MTT
Procedure: as §1

[4] = biological target: T1, α-glucosidase (EC3.2.1.20) (Saccharomyces cerevisiae, UniProt P53341); test: α-Glucosidase inhibitory activity assay; format: biochemical; settings: for inhibition at 200 µg/mL: read-out: %Inhibition (200 µg/ml) alpha glucosidase
T1 construct: purchased Sigma-Aldrich
Procedure: The ability of the synthesized compounds to inhibit α-glucosidase was determined as per the method described by[35]. […] After incubation at 37 °C for 10 min, the reaction was initiated by adding 25 µL of substrate (4 mM) and further incubating at 37 °C for 20 min. The absorbance was measured at 405 nm.

[5] = tested on: STZ-induced diabetic rats; test: Physiological parameters (lipid profile); format: in vivo, Sprague Dawley rats; settings: Fig. 1; for HDL / LDL / triglycerides: after treatment
Procedure: (§2) Diabetes will be induced in rats (n = 6 per group) by a single intraperitoneal injection of 60-100 mg/kg body weight (BW) streptozotocin dissolved in normal saline. After 5 days of streptozotocin injection, the tail vein blood will be collected to determine the fasting blood glucose (FBG) level. Only rats with FBG over 200 mg/dl will be considered diabetic and used for further experimentation.
Animals will be sacrificed after […] of treatment and parameters including LDL, triglycerides, HDL cholesterol, and glucose will be determined by using KONELAB SYSTEM (Thermo Fisher Scientific, Finland) according to manufacturer’s guidelines.

[6] = tested on: STZ-induced diabetic rats; test: Effect on FBG, body weight and HbA1C over 6 weeks; format: in vivo, Sprague Dawley rats; design: % Reduction in FBG: concentration or dose not given beside the values; settings: for BW (Day 0) / FBG (Day 0): Day 0, baseline; for % Change in BW / % Reduction in FBG: Day 0 to Day 42; for BW (Day 42) / FBG (Day 42): Day 42 of treatment; for HbA1C: end of 6-week treatment
Procedure: as §2
Diabetic Rats (n = 6 per group) will be randomly assigned to groups of six animals each in order to examine the impact of synthetic derivatives on FBG level, BW, and HbA1C. The course of treatment will last for six weeks. At the beginning of the experiment and at weekly intervals during the first 42 days of therapy, the FBG level and BW will be measured. Rats will be denied food for 12 h while fasting, but they will have unrestricted access to water. Commercial glucose oxidase kits will be used to measure the blood glucose level. Blood 7 will be collected through cardiac puncture at the end of study period and levels of HbA1C will be determined. Metformin will be used as standard for comparison purpose.

[7] = tested on: STZ-induced diabetic rats; test: Fasting blood glucose and oral glucose tolerance test (OGTT); format: in vivo, Sprague Dawley rats; settings: for OGTT (after 120 min): 120 min after glucose 2.0 g/kg; for Fasting blood glucose: Table 7, mean ± SD, 5 rats per group; for FBG and OGTT reduction in words: compared to diabetic control
Procedure: […] After 5 days of streptozotocin injection, the tail vein blood will be collected to determine the fasting blood glucose (FBG) level. Only rats with FBG over 200 mg/dl will be considered diabetic and used for further experimentation.
This assay will be performed in animals after fasting for an overnight (12 h). Then, rats will receive a bolus of glucose (2.0 g/kg body weight) followed by test molecule or control and plasma glucose will be measured from blood collected from tail vein at 0, 30, 60, 90 and 120 min after glucose administration. Plasma glucose levels will be analyzed using commercially available glucometer kits[40].

[8] = relative to positive control (diabetic rats), Fig. 2

T1 sequence (P53341 whole entry): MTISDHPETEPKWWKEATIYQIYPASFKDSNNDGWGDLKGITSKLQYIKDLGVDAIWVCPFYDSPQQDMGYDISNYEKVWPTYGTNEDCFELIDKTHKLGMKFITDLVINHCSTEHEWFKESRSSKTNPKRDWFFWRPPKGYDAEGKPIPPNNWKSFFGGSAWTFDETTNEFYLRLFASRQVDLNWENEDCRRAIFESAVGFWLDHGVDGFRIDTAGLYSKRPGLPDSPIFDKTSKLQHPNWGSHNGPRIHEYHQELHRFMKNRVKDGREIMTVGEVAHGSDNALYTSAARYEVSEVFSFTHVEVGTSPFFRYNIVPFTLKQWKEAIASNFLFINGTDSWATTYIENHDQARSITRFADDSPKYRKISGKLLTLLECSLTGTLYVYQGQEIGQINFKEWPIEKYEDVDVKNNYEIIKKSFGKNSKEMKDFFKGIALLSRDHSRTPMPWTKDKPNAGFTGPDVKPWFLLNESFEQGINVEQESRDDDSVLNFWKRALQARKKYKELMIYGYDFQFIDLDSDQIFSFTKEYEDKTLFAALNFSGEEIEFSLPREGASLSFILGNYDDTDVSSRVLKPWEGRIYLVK

| Structure (SMILES) | DPPH free radical scavenging % inhibition ([1]; 3.12 µg/mL) | DPPH free radical scavenging % inhibition ([1]; 6.25 µg/mL) | DPPH free radical scavenging % inhibition ([1]; 12.5 µg/mL) | DPPH free radical scavenging % inhibition ([1]; 25 µg/mL) | DPPH free radical scavenging % inhibition ([1]; 50 µg/mL) | DPPH free radical scavenging % inhibition ([1]; 100 µg/mL) | DPPH free radical scavenging % inhibition ([1]; 200 µg/mL) | Cytotoxicity category [2] | IC50 at 48 h [3] | inhibition at 200 µg/mL [4] | BW (Day 0) [6] | FBG (Day 0) [6] | % Change in BW [6] | % Reduction in FBG [6] | BW (Day 42) [6] | FBG (Day 42) [6] | HbA1C [6] | OGTT (after 120 min) [7] | Fasting blood glucose [7] | FBG and OGTT reduction in words [7] | further results |
| --- | --- | --- | --- | --- | --- | --- | --- | --- | --- | --- | --- | --- | --- | --- | --- | --- | --- | --- | --- | --- | --- |
| O=C1O[C@H]([C@@H](O)CO)C(O)=C1O [Ascorbic Acid, reference compound] | 30.2 ± 1.9% | 50.6 ± 2.5% | 68.9 ± 2.8% | 82.3 ± 3.1% | 89.6 ± 3.3% | 94.2 ± 3.5% | 96.8 ± 3.7% | – | – | – | – | – | – | – | – | – | – | – | – | – | – |
| Cc1ccc(-c2cc(C(F)(F)F)nn2-c2ccc(S(N)(=O)=O)cc2)cc1 [Celecoxib, reference compound] | – | – | – | – | – | – | – | Moderate cytotoxicity | 342 ± 9.7 µg/mL (≈ 897 µM) | – | – | – | – | – | – | – | – | – | – | – | – |
| O=C1CN(S(=O)(=O)c2cccc(C(=O)O)c2)C(=S)N1 [FP2, 3-(4-oxo-2-sulfanylideneimidazolidine-1-sulfonyl)benzoic acid] | 18.4 ± 1.3% | 31.3 ± 1.9% | 47.6 ± 2.4% | 62.9 ± 2.8% | 74.5 ± 3.1% | 79.8 ± 3.2% | 82.6 ± 3.3% | Low cytotoxicity | 845 ± 12.7 µg/mL (≈ 2810 µM) | 48.1 ± 0.94% | 218.3 ± 7.5 g | 280.5 ± 10.1 mg/dL | −7.1% | 24.9% | 202.8 ± 7.9 g | 210.7 ± 9.6 mg/dL | 7.5% and 7.5 ± 0.4% | 288.0 ± 9.5 mg/dL | 229.9 ± 7.6 mg/dL | significant reductions | lipid profile effect in words [5]: moderate improvements; IC₅₀ (concentration required to inhibit 50% of DPPH free radicals) [1]: 52.4 ± 2.5 µg/mL; percentage reduction in FBG [7, 8]: 18.5% |
| CC(=O)c1cccc(S(=O)(=O)N2CC(=O)NC2=S)c1 [FP4, 1-(3-acetylbenzene-1-sulfonyl)−2-sulfanylideneimidazolidin-4-one] | 22.1 ± 1.5% | 38.2 ± 2.1% | 55.7 ± 2.6% | 71.6 ± 3.0% | 81.2 ± 3.5% | 85.9 ± 3.7% | 87.4 ± 3.9% | Moderate cytotoxicity | 598 ± 11.4 µg/mL (≈ 2010 µM) | 51.4 ± 1.25% | 215.9 ± 7.8 g | 279.1 ± 9.7 mg/dL | −4.7% | 28.9% | 205.7 ± 8.6 g | 198.4 ± 8.3 mg/dL | 7.2 ± 0.3% | 275.2 ± 9.1 mg/dL | 218.4 ± 7.3 mg/dL | – | IC50 ([4]; Mean ± SD, read-out: IC50 alpha glucosidase (converted)): 434 µM; HDL [5]: 42.3 ± 2.5 mg/dL; LDL [5]: 54.8 ± 3.1 mg/dL; triglycerides [5]: 112.5 ± 6.2 mg/dL; percentage reduction in FBG [7, 8]: 22.6%; percentage reduction in OGTT [7, 8]: 19.4% |
| Cc1ccc(S(=O)(=O)N2CC(=O)NC2=S)cc1C(=O)O [FP5, 2-methyl-5-(4-oxo-2-sulfanylideneimidazolidine-1-sulfonyl)benzoic acid] | 17.8 ± 1.2% | 29.6 ± 1.7% | 44.5 ± 2.3% | 58.7 ± 2.6% | 69.3 ± 2.9% | 73.1 ± 3.1% | 78.9 ± 3.3% | Low cytotoxicity | 690 ± 13.2 µg/mL (≈ 2190 µM) | 33.2 ± 0.87% | 216.8 ± 8.1 g | 281.0 ± 9.9 mg/dL | −7.7% | 21.6% | 200.1 ± 8.5 g | 220.2 ± 9.2 mg/dL | 7.8% and 7.8 ± 0.3% | 295.3 ± 9.9 mg/dL | 236.1 ± 8.1 mg/dL | significant reductions | alpha-glucosidase inhibition in words [4]: inactive; lipid profile effect in words [5]: moderate improvements; IC₅₀ (concentration required to inhibit 50% of DPPH free radicals) [1]: 58.1 ± 2.6 µg/mL; percentage reduction in FBG [7, 8]: 16.3% |
| COc1ccc(S(=O)(=O)N2CC(=O)NC2=S)cc1C(=O)O [FP6, 2-methoxy-5-(4-oxo-2-sulfanylideneimidazolidine-1-sulfonyl)benzoic acid] | 8.5 ± 0.8% | 16.2 ± 1.1% | 24.9 ± 1.6% | 36.4 ± 2.2% | 44.7 ± 2.5% | 49.8 ± 2.6% | 53.6 ± 2.8% | negligible cytotoxicity; also recorded: Non-toxic | > 900 µg/mL | 36.4 ± 1.03% | – | – | – | – | – | – | – | 307.5 ± 10.4 mg/dL | 249.1 ± 8.5 mg/dL | minor reductions | alpha-glucosidase inhibition in words [4]: inactive; IC₅₀ cytotoxicity MTT ([2]; 48 h, Mean ± SD, n = 3): 930.4 ± 10.6 µg/mL |
| CN(C)C(=N)N=C(N)N [Metformin, reference compound] | – | – | – | – | – | – | – | – | – | – | 216.2 ± 8.0 g | 282.3 ± 10.5 mg/dL | – | 49.5% | 225.6 ± 9.4 g | 142.5 ± 7.8 mg/dL | 6.1 ± 0.3% | 159.4 ± 8.3 mg/dL | 119.2 ± 6.5 mg/dL | – | HDL [5]: 49.2 ± 2.7 mg/dL; LDL [5]: 45.1 ± 2.4 mg/dL; triglycerides [5]: 94.3 ± 5.1 mg/dL |
| OCCN1C[C@H](O)[C@@H](O)[C@H](O)[C@H]1CO [Miglitol, reference compound] | – | – | – | – | – | – | – | – | – | – | – | – | – | – | – | – | – | – | – | – | inhibition at 50 µg/mL ([4]; read-out: %Inhibition alpha glucosidase): 87.9 ± 1.09% |
